Counter-ions that a name gives are not always drawn. Like-named read-outs stand apart in the source and are kept apart here.
What was measured:
Type in all cases: cell-based, human
[1] = system: T47D (Ductal carcinoma of breast); assay: In vitro cytotoxicity, microculture tetrazolium (MTT) assay, T47D
Method: (§1) In Vitro Cytotoxicity--Microculture Tetrazolium Assay
(§2) The microculture tetrazolium assay was used to test in vitro cytotoxicity. This assay is described in Plumb, J. A. et al., 1989 Cancer Research 49, 4435-4440, which is herein incorporated by reference. The cytotoxicity of compounds towards tumor cells is measured in vitro using the assay. This assay method is based upon the ability of live, but not dead cells to reduce the yellow water soluble dye 3-(4;5-dimethylthiazol-2-yl)-2,5-diphenyltetrazolium bromide (MTT) to its water insoluble purple formazan product.
(§3) Human Tumor Cell lines, used were:
T47D (Ductal carcinoma of breast)--ATCC catalog #HTB-133.
(§4) The cells were maintained in exponential growth in culture in minimal essential media (MEM) supplemented with non-essential amino acids, and containing 15% (v/v) fetal bovine serum, 5 mM L-glutamine, 1 mM sodium pyruvate, and 0.1 U/ml insulin. All cell lines were grown at 37° C. in an atmosphere of 5% CO2 in air.
(§5) Test compounds: 20 mM in DMSO and diluted to a final concentration of 200 μM in culture medium before use.
(§6) The following is the generic description of the assay method. It should be noted that although the conditions described work well with the cells listed above, the initial plating density and the MTT concentration used should be verified for each new cell line used to test compounds.
(§7) For each assay, doxorubicin is included as an inter-assay standard. This allows us to monitor the behaviour of the assay in general, and in particular, to check that the SKVLB line has maintained its resistant phenotype.
(§8) The plate layout is done in the following manner: The assays are carried out in 96-well (8 well×12 well) microtiter plates. Serial dilutions of the compound are tested along the length of the plate. A 1:3 serial dilution of compound in culture medium covers a concentration range from 100 μM to 1.7 nM. Each concentration of compound is tested in quadruplet, allowing two compounds to be tested per plate. Wells containing no cells (blank) and cells with no test compound (control) are included on each plate.
(§9) Cells are plated out in 100 μl of culture medium in the microtiter plates at a density of around 1,500-4,000 cells per well. The plates are incubated overnight to allow the cells to become adherent after which the test compound is added (100 μl of appropriate dilution per well). The cells are incubated with test compound at 37° C. for 48 h after which the compound is replaced with fresh medium. After a further 48 h incubation at 37° C., 50 μl of MTT solution (2 mg/ml) is added to each well. The plates are incubated in the dark for 4 h at 37° C. after which the medium is removed. The MTT formazan product is extracted from the cells by the addition of 200 μl DMSO followed by 50 μl of Sorensen's buffer. The plates are shaken briefly and the absorbance at 570 nm is read using a Molecular Devices UV max plate reader. Curves are fit to the MTT assay data using a four parameter logistic equation, and the data are normalized to fit a 0% to 100% survival scale.

[2] = system: SKVLB (Ovarian; multidrug resistant); assay: In vitro cytotoxicity, microculture tetrazolium (MTT) assay, SKVLB; conditions: for VLB/OV3: ratio SKVLB / SKOV3
Method: as §1, §2, §3
SKVLB (Ovarian; multidrug resistant)--Dr. V. Ling, Ontario
as §4, §5, §6, §7, §8, §9

[3] = system: HT 29 (Colon adenocarcinoma); assay: In vitro cytotoxicity, microculture tetrazolium (MTT) assay, HT 29
Method: as §1, §2, §3
HT 29 (Colon adenocarcinoma) ATCC catalog #HTB-38.
as §4, §5, §6, §7, §8, §9

Lox (Melanoma) = assay: In vitro cytotoxicity, microculture tetrazolium (MTT) assay, Lox
Method: as §1, §2, §3
Lox (Melanoma)--Southern Research Institute.
as §4, §5, §6, §7, §8, §9

[4] = system: SKOV3 (Ovarian adenocarcinoma); assay: In vitro cytotoxicity, microculture tetrazolium (MTT) assay, SKOV3
Method: as §1, §2, §3
SKOV3 (Ovarian adenocarcinoma)--provided by Dr. V. Ling,
as §4, §5, §6, §7, §8, §9

[5] = Homo sapiens, SKVLB, multidrug resistant, read-out: IC50
[6] = Homo sapiens, HT-29, HT29, read-out: IC50
[7] = Homo sapiens, SK-OV-3, SKOV3, read-out: IC50
[8] = SKVLB, multidrug resistant, read-out: IC50

`COC1OC(C(=O)NCCCn2ccnc2)=CC2=C1C(=O)c1ccccc1C2=O` (stereo not drawn) [BCH2157, (3-N-hydrochloroimidazolylpropyl)-1-methoxy-5,10-dioxo-5,10-dihydro-1H-naphtho-[2,3-c]-pyran-3-carboxamide] showed an IC50 ([1]; Homo sapiens, read-out: IC50) of 233 nM, an IC50 [2, 5] of 3390 nM and a VLB/OV3 [2] of 18.13. The IC50 [3, 6] was 1230 nM, the IC50 (Lox (Melanoma); Homo sapiens, read-out: IC50) was 15.5 nM and the IC50 [4, 7] was 187 nM.
`CC(=O)[C@@H]1CC2=C(C(=O)c3ccccc3C2=O)[C@H](OC2CCC(NC(=O)N(CCCl)N=O)CC2)O1` (mixture of isomers) [BCH2114, (1R,3S) and (1S,3R)-3-aceto-5,10-dioxo-1 (4-chloroethylnitrosoureido cyclohexyl-oxy)-3,4,5,10-tetrahydro-1H-naphtho-(2,3-c)-pyran] was tested, and the IC50 ([1]; read-out: IC50) was 655 nM, the IC50 [2, 8] was 2040 nM and the VLB/OV3 [2] was 4.32. It also gave an IC50 ([3]; HT29, read-out: IC50) of 257 nM, an IC50 (Lox (Melanoma); read-out: IC50) of 373 nM and an IC50 ([4]; SKOV3, read-out: IC50) of 472 nM.
With `COC1OC(C(=O)NCCN2CCOCC2)=CC2=C1C(=O)c1ccccc1C2=O` (stereo not drawn) [BCH2171, 1-methoxy-3-[2-(N-morpholine)ethylaminocarbonyl]-5,10-dioxo-5,10-dihydro-1H-naphtho-[2,3-c]-pyran] the IC50 ([1]; Homo sapiens, read-out: IC50) was 398 nM, the VLB/OV3 [2] was 2.16 and the IC50 ([3]; HT29, read-out: IC50) was 219 nM.
In the case of `CC(=O)C1CC2=C(C(=O)c3ccccc3C2=O)C(OCC2CCN(C(=O)OC(C)(C)C)CC2)O1.Cl` (racemic) [BCH2068, Methyl-(1-O-[N-BOC-4-piperidinemethanol]-5,10-dioxo-3,4,5,10-tetrahydronaphthaleno-[2,3-c]pyran-3-yl) ketone, racemic, hydrochloride], the IC50 ([1]; read-out: IC50) is reported as 422 nM, the IC50 [2, 8] is reported as 1200 nM and the VLB/OV3 [2] is reported as 1. For the same compound, the IC50 ([3]; HT29, read-out: IC50) was 130 nM and the IC50 (Lox (Melanoma); read-out: IC50) was 1300 nM.
With `CC(=O)C1CC2=C(C(=O)c3ccccc3C2=O)C(OC2CC(NC(=O)C(F)(F)F)C(O)C(C)O2)O1` (stereo not drawn) [BCH2145] the IC50 [2, 8] was 13400 nM, the VLB/OV3 [2] was 1.64 and the IC50 ([3]; HT29, read-out: IC50) was 2480 nM. The IC50 (Lox (Melanoma); read-out: IC50) was 830 nM and the IC50 ([4]; SKOV3, read-out: IC50) was 8190 nM.
With `CC(=O)C1CC2=C(C(=O)c3ccccc3C2=O)C(O)O1` (stereo not drawn) [BCH1148, Methyl (1-hydroxy-5,10-dioxo-3,4,5,10-tetrahydronaphtho [2,3-C]pyran-3-yl) ketone] the IC50 [3, 6] was greater than 10000 nM.
“(1'S,1S,3R)-methyl-(6 and 9-hydroxy-1-[2',3',6'-trideoxy-3'-trifluoroacetamido-4'-hydroxy-L-lyxohexopyranose]-5,10-dioxo-3,4,5,10-tetrahydronaphtho-[2,3-c]-pyran-3-yl-ketone [BCH2078]” showed an IC50 ([1]; read-out: IC50) of 507 nM, an IC50 [2, 8] of 2240 nM and a VLB/OV3 [2] of 5.41. It also gave an IC50 ([3]; HT29, read-out: IC50) of 269 nM and an IC50 ([4]; SKOV3, read-out: IC50) of 414 nM.
For `COP(=O)(CC(=O)[C@@H]1CC2=C(C(=O)c3ccccc3C2=O)[C@@H](O[C@H]2C[C@H](NC(=O)C(F)(F)F)[C@H](O)[C@H](C)O2)O1)OC` [BCH1689, (1'S,1R,3S)-1-(2',3',6'-trideoxy-3'-trifluoroacetamido-L-lyxohexopyranose)-3-dimethylphosphonoacetyl-5,10-dioxo-3,4,5-10-tetrahydro-1H-naphtho-[2,3-c]-pyran], the IC50 ([2]; Homo sapiens) was 16500 nM, the VLB/OV3 [2] was 5.94 and the IC50 ([3]; Homo sapiens, HT-29) was 3660 nM. It also gave an IC50 (Lox (Melanoma); Homo sapiens) of 1720 nM and an IC50 ([4]; Homo sapiens, SK-OV-3) of 2780 nM.
Compound `CC(=O)O[C@@H]1[C@H](C)O[C@@H](OC2OC(C(C)=O)CC3=C2C(=O)c2ccccc2C3=O)C[C@@H]1OC(C)=O` (mixture of isomers) [BCH2118, (1'S,1S,3R) and (1'S,1R,3S)-methyl-(1-[dideoxy-2',6'-diacetoxy-3',4'-L-lyxohexopyranose]-5,10-dioxo-3,4,5,10-tetrahydronaphtho-[2,3-c]-pyran-3-yl) ketone] has an IC50 ([1]; read-out: IC50) of 244 nM, an IC50 [2, 8] of 790 nM and a VLB/OV3 [2] of 6.68. It also gave an IC50 ([3]; HT29, read-out: IC50) of 203 nM and an IC50 ([4]; SKOV3, read-out: IC50) of 120 nM.
For `COC1OC(C(=O)NCCCN2CCCC2=O)=CC2=C1C(=O)c1ccccc1C2=O` (stereo not drawn) [BCH2166, 1-methoxy-3-(3-N-pyrrolidinomylpropylaminocarbonyl)-5,10-dioxo-5,10-dihydro-1H-naphtho-[2,3-c]-pyran], the IC50 ([1]; Homo sapiens, read-out: IC50) was 237 nM, the IC50 [2, 5] was 495 to 1200 nM and the VLB/OV3 [2] was 2.73. It also gave an IC50 [3, 6] of 443 to 1200 nM and an IC50 [4, 7] of 140 to 181 nM.
Compound `COP(=O)(CC(=O)[C@H]1CC2=C(C(=O)c3ccccc3C2=O)[C@H](O[C@H]2C[C@H](NC(=O)C(F)(F)F)[C@H](O)[C@H](C)O2)O1)OC` [BCH1690, (1'S,1S,3R)-1-(2',3',6'-trideoxy-3'-trifluoroacetamido-L-lyxohexopyranose)-3-dimethylphosphonoacetyl-5,10-dioxo-3,4,5-10-tetrahydro-1H-naphtho-[2,3-c]-pyran] has an IC50 ([2]; Homo sapiens) of 13700 nM, a VLB/OV3 [2] of 7.70 and an IC50 ([3]; Homo sapiens, HT-29) of 3010 nM. The IC50 (Lox (Melanoma); Homo sapiens) was 1620 nM and the IC50 ([4]; Homo sapiens, SK-OV-3) was 1780 nM.
With `COc1cccc2c1C(=O)c1c(O)c3c(c(O)c1C2=O)C[C@@](O)(C(=O)CO)C[C@@H]3O[C@H]1C[C@H](N)[C@H](O)[C@H](C)O1` [Adriamycin, reference compound] the IC50 ([1]; Homo sapiens) was 70 nM, the IC50 ([3]; Homo sapiens, HT-29) was 90 nM and the IC50 (Lox (Melanoma); Homo sapiens) was 34 nM. The IC50 ([4]; Homo sapiens, SK-OV-3) was 12 nM.
`CC[C@H]1CC2=C(C(=O)c3ccccc3C2=O)[C@H](NC(C)=O)O1` (relative stereo) [BCH2027, Trans-5,10-dioxo-1-acetamido-3-ethyl-3,4,5,10-tetrahydro-1H-naphtho-[2,3-c]-pyran] was tested, and the IC50 ([1]; Homo sapiens) was 23300 nM, the VLB/OV3 [2] was 4.02 and the IC50 (Lox (Melanoma); Homo sapiens) was 3040 nM.
Work on `C=C(C)[C@H]1CC2=C(C(=O)c3ccccc3C2=O)[C@H](OC)O1` (relative stereo) [BCH2148, (trans)-5,10-dioxo-3-isopropenyl-1-methoxy-3,4,5,10-tetrahydro-1H-naphtho-[2,3-c]-pyran] yielded a VLB/OV3 [2] of 0.79 and an IC50 (Lox (Melanoma); Homo sapiens) of 1550 nM.
`COC(=O)C1(C(=O)OC)CC2=C(CO1)C(=O)c1ccccc1C2=O` [BCH1665, 3,3-bis-(methoxycarbonyl)-5,10-dioxo-3,4,5,10-tetrahydro-1H-naphtho-[2,3-c]-pyran] was tested, and the VLB/OV3 [2] was 1.14.
`CC[C@H]1CO[C@H](O[C@H]2C[C@H](NC(=O)C(F)(F)F)[C@H](O)[C@H](C)O2)C2=C1C(=O)c1ccccc1C2=O` [BCH2091, (1'S,1R,4R)-5,10-dioxo-4-ethyl-1-(2',3',6'-trideoxy-3'-trifluoroacetamido-L-lyxohexopyranose)-3,4,5,10-tetrahydro-1H-naphtho-[2,3-c] pyran] gave a VLB/OV3 [2] of 3.
Work on `COC(=O)[C@H](CC(C)C)NC(=O)[C@H](CO[C@H]1O[C@H](C(C)=O)CC2=C1C(=O)c1ccccc1C2=O)NC(=O)OC(C)(C)C` [BCH1998, (1S,2'S,3S,5'S)-Methyl-(1-O-[N-BOC-Serine-Leucine-Me ester]-5,10-dioxo-3,4,5,10-tetrahydro-1-H-naphtho [2,3-c]pyran-3-yl) ketone] yielded a VLB/OV3 [2] of 13.28.
With `CC(=O)O[C@@H]1[C@H](C)O[C@@H](O[C@@H]2O[C@@H](C(C)=O)CC3=C2C(=O)c2ccccc2C3=O)C(Br)[C@@H]1OC(C)=O` (stereo partly drawn) [BCH2099, (1'S,1S,3R)-methyl-(1-[2',6'-dideoxy-3',4'-diacetoxy-2'-bromo-L-lyxohexopyranose]-5,10-dioxo-3,4,5,10-tetrahydronaphtho-[2,3-c]-pyran-3-yl) ketone] the VLB/OV3 [2] was 0.77-2.
For `COC1OC(C(=O)NCCCN(C)C)=CC2=C1C(=O)c1ccccc1C2=O` (stereo not drawn) [BCH2051, 1-Methoxy-5,10-dioxo-5,10-dihydro-1H-naphtho[2,3-c]pyran-3-[N-(3-dimethylamino-propyl)carboxamide] hydrochloride monohydrate], the “multidrug resistance / effectiveness in multidrug resistant cell line” value ([2]; SKVLB cell line) was “significantly avoiding multidrug resistance” and the “in vitro antitumor potency” value ([2]; in vitro) was “intense in vitro antitumor potency”.
